From patent publication US20140335474A1, “FLOSS DEVICE, A METHOD OF FORMING THE FLOSS DEVICE AND A METHOD OF USING THE FLOSS DEVICE” (priority 2008, published 2014)

Test system: E. Coli (strain DH5α)
Assay: Testing of antimicrobial RXPIX: bacterial viability by turbidity of LB Broth
Type: cell-based
Conditions: 15 minutes fluid exchange at room temperature, then 2 ml LB Broth, 20 hours at 37° C., three replicates
Description: For each sample three replicate experiments were preformed. Briefly, a drop of the bacterium E. Coli (strain DH5α) was mixed with a small amount of a medium (Luria-Bertani Broth, or LB Broth) and allowed to exchange fluid with the floss device 10, which is named “RXPIX” for identification purposes in the following tests, for 15 minutes. After this period of time, 2 ml of LB Broth was added to each test tube and the bacteria were allowed to grow for 20 hours at 37° C. Observing the turbidity of the broth at this time assessed bacterial viability. Bacterial viability was also assessed analytically by measuring the absorbance of visible light (600 nm).
B. On Day 2, 1 micro liter of E. Coli cells was transferred to each 12×75 mm round bottom test tube for antimicrobial testing. In addition, 5 micro liters of fresh LB Broth were added to each test tube to allow for fluid exchange. […]
D. After 20 hours of incubation, bacterial viability was assessed. […]
E. To further characterize bacterial growth, the absorbance of 600 nm visible light was used to analytically measure turbidity. The broth from each sample was measured with a spectrophotometer equipped with a lamp emitting visible light.

`CCO` [70% ethanol, ethanol] was tested, and the “bacterial growth (turbidity of the LB Broth)” value was “no bacterial growth” and the “bacterial growth (turbidity of the LB Broth)” value (listed as 70% ethyl alcohol) was “not showing bacterial growth”.
